Test results as given in ChEMBL document CHEMBL3045840, “Application of pocket modeling and k-nearest neighbor molecular field analysis (kNN-MFA) for designing of some anticoagulants: potential factor IXa inhibitors” (Med Chem Res, 2013).
Converted amounts (≈) assume the structure as drawn.

Key:
[1] = Anticoagulant activity in plasma assessed as elongation in mean prothrombin time after 5 min by Quick's method; format: functional, cell-free
[2] = Octanol-water partition coefficient, log P of the compound; format: physicochemical

Row | SMILES | IC50 [1] [µg/mL] | logP [2]
1 | C/C(CC(=O)Nc1nnc(-c2ccc(O)cc2)s1)=N\c1ccc([N+](=O)[O-])cn1 | 2800 (≈ 7.03 mM) | 3.34
2 | C/C(CC(=O)Nc1nnc(-c2ccc([N+](=O)[O-])cc2)s1)=N\c1ccc([N+](=O)[O-])cn1 | 1200 (≈ 2.81 mM) | 3.54
3 | C/C(CC(=O)Nc1nnc(/C=C/c2ccccc2)s1)=N\c1ccc([N+](=O)[O-])cn1 | 3000 (≈ 7.34 mM) | 4.13
4 | C/C(CC(=O)Nc1nnc(-c2ccc(N)cc2)s1)=N\c1ccc([N+](=O)[O-])cn1 | 2700 (≈ 6.79 mM) | 3.21

Now from value to compound:

Row | IC50 [1] [µg/mL] | logP [2] | SMILES
5 | 2100 (≈ 4.77 mM) | 3.55 | CC(=O)Oc1ccccc1-c1nnc(NC(=O)C/C(C)=N/c2ccc([N+](=O)[O-])cn2)s1
6 | 1200 (≈ 3.14 mM) | 3.63 | C/C(CC(=O)Nc1nnc(-c2ccc([N+](=O)[O-])cc2)s1)=N\c1ccccn1
7 | 3500 (≈ 9.93 mM) | 3.3 | C/C(CC(=O)Nc1nnc(-c2ccc(N)cc2)s1)=N\c1ccccn1
8 | 2600 (≈ 6.57 mM) | 3.65 | CC(=O)Oc1ccccc1-c1nnc(NC(=O)C/C(C)=N/c2ccccn2)s1
9 | 3100 (≈ 8.77 mM) | 3.43 | C/C(CC(=O)Nc1nnc(-c2ccc(O)cc2)s1)=N\c1ccccn1
10 | 2400 (≈ 6.6 mM) | 4.22 | C/C(CC(=O)Nc1nnc(/C=C/c2ccccc2)s1)=N\c1ccccn1
